Measurements: patent publication US20070254928A1, “Use of Roflumilast for the Prophylaxis or Treatment of Emphysema” (Altana Pharma AG, priority 2004, published 2007)
Marks after values point to notes of the source that are not given here.

Columns and labels:
Type in all cases: in vivo
[1] = system: cigarette smoke induced emphysema in mice (C57BI/6J); assay: Chronic model of cigarette smoke exposure in mice: lung desmosine content by HPLC; settings: for Desmosine (lung content): 7 months, mean ± SEM
Description: (§1) Effects of ROFLUMILAST in an Chronic Model of Cigarette Smoke Exposure in Mice
(§2) Eighty 6 week old male mice of the strain C57BI/6J (supplied Harlan-Italy, Udine, Italy) were used in this study. The mice were housed in groups of 7 to 10 in macrolon cages. Room temperature was kept at 22° to 24° C.; and relative humidity at 40 to 50%; food and water were supplied ad libitum. All animal experimentation was approved by the Local Ethical Committee of the University of Siena.
(§3) ROFLUMILAST was given p.o. by gavage in a volume of 10 μl suspension/g body weight 60 min prior to either air or smoke exposure.
(§4) The methodology for chronic smoke exposure has been previously described in detail (Cavarra et al; Am J Respir Crit Care Med 2001; Vol 164, pp 886-890). Briefly, mice were exposed to either the smoke of 3 cigarettes/day (commercial Virginia filter cigarettes: 12 mg of tar and 0.9 mg of nicotine), 5 days/week or to room air (controls) for 7 months, in especially designed macrolon cages (Tecniplast, Buguggiate, Italy). These cages (42.5×26.6×19 cm) are equipped with a disposable filter cover which enables the air to flow out of the cages and thus to be continuously renewed. The smoke was produced by the burning of a cigarette and was introduced into the chamber with the airflow generated by a mechanical ventilator (7025 Rodent Ventilator, Ugo Basile, Biological Research Instruments, Comerio, Italy), at a rate of 33 ml /min. A second mechanical ventilator was used to provide room air for dilution (1:8) of the smoke-stream. With this methodology the mice were exposed to the smoke originated by three cigarettes once a day for the duration of 90 min. In a pilot study, the efficiency of the smoke delivery system was tested in 12 mice by measuring blood HbCO by co-oxymetry.
Lung desmosine concentration was determined by High Pressure Liquid Chromatography (HPLC) essentially according to Cumiskey et al. (J Chromatogr B 1995, Vol 668, pp 199-207). Briefly, lung samples were homogenized in 5% TCA (1:9, w:v) and centrifuged for 10 min. at 4000 g at 4° C. The pellet was then washed twice with distilled water and hydrolyzed for 16 h at 130° C. in 6 N HCl.
After hydrolysis, the samples were centrifuged for 10 min at 2000 g and filtered through a FP 030/3 0.2 μm filter (Schleicher & Schuell). Aliquots (0.5 ml) of samples were desiccated under liquid nitrogen and then suspended in 0.6 ml 0.1 M sodium phosphate, pH 3.73.
The HPLC apparatus consisted of a single pump (Pro-Star 210, Varian) delivering isocratic mobile phase, of which 80% was 0.1 M dibasic sodium phosphate adjusted to pH 3.75 with phosphoric acid; the remaining 20% was acetonitrile. Sodium dodecyl sulphate (SDS) was added to a final concentration of 10 mM. The pH was re-adjusted after the addition of acetonitrile and SDS. The flow rate was 0.8 ml/min through a C18 (reverse phase MSORV 100A, Varian). Injection volumes of 100 μl of test samples diluted in 0.1 M sodium phosphate buffer, pH 3.75 was used to detect desmosine concentration. Detection of desmosine was by absorbance at 275 nm. Peak purity was checked with a Pro-Star 330 photodiode array detector (Varian) scanning from 200 to 400 nm. Isodesmosine eluted at approx. 9 min, and desmosine approx. at 12 min. Peak height, appopriate external calibration curves and internal standards were used to quantitate desmosine in unknown samples. Desmosine standards were from Elastin Co. (USA).
(§5) All data were analyzed using GraphPad Prism software (GraphPad Software, San Diego, Calif., USA). For each parameter the values of the individual animals were averaged and the SEM was calculated. The significance of the differences was calculated using parametric one-way analysis of variance (ANOVA) with subsequent Bonferroni's multiple comparison post-test for selected pairs. A p value of <0.05 was considered significant.

C57BI/6J mice = assay: Chronic model of cigarette smoke exposure in mice: mortality; settings: all groups, ROFLUMILAST 1 or 5 mg/kg p.o., 7 months
Description: as §2, §3
as §4, with “A second mechanical ventilator was used to provide room air for dilution (1:8) of the smoke-stream. With this methodology the mice were exposed to the smoke originated by three cigarettes once a day for the duration of 90 min. In a pilot study, the efficiency of the smoke delivery system was tested in 12 mice by measuring blood HbCO by co-oxymetry.” left out

[2] = system: cigarette smoke induced emphysema in mice (C57BI/6J); assay: Chronic model of cigarette smoke exposure in mice: morphometric assessment of emphysema (Lm, ISA); settings: for Lm (mean linear intercept) / ISA (internal surface area of the lung): 7 months, mean ± SEM; for ISA (internal surface area of the lung): ISA=4VL/Lm; for Inhibition of emphysema formation (Lm and ISA), in words: smoke-exposed
Description: as §1, §2, §3, §4
Seven months after chronic exposure to room air or cigarette smoke (24 h after last exposure), 5 to 12 animals of each group, were anesthetized with ether and then exsanguinated by severing the abdominal aorta. The lungs were excised and fixed intratracheally with buffered formalin (5%) at a constant pressure of 20 cm H2O for at least 24 hours. Post-fixation lung volume (VL) was measured by water displacement. All lungs were then dehydrated, cleared in toluene and embedded under vacuum in paraffin. Two 7-μm transversal sections were made and stained with hematoxylin-eosin and/or periodic acid-Schiff (PAS). Two pathologists blinded to the exposure protocol carried out the morphological and morphometrical evaluation.
Morphometric assessment of emphysema included determination of the average inter-alveolar distance (mean linear intercept: Lm) and internal surface area estimated by the Lm method at postfixation lung volume. For the determination of the Lm for each pair of lungs, 40 histological fields were evaluated both vertically and horizontally. Examination of these numbers of fields meant that practically the entire lung area was evaluated. Internal surface area of the lung (ISA) was calculated by according to the formula: ISA=4VL/Lm.
as §5

[3] = air exposure, ROFLUMILAST 5 mg/kg p.o.
[4] = chronic model of cigarette smoke induced emphysema in mice, dose not given
[5] = cigarette smoke exposure, ROFLUMILAST 1 mg/kg p.o.
[6] = cigarette smoke exposure, ROFLUMILAST 5 mg/kg p.o.

## O=C(Nc1c(Cl)cncc1Cl)c1ccc(OC(F)F)c(OCC2CC2)c1 [ROFLUMILAST, 3-cyclopropylmethoxy-4-difluoro-methoxy-N-(3,5-dichloropyrid-4-yl)benzamide]
[1]; [3]
  Desmosine (lung content): 2.91 ± 0.08 μg/lung
[1]; [4]
  Effect on drop of the desmosine content in the lung, in words: can prevent the drop of the desmosine content in the lung
[1]; [5]
  Desmosine (lung content): 2.45 ± 0.11 μg/lung
[1]; [6]
  Desmosine (lung content): 2.98 ± 0.10 μg/lung
[1]; smoke-exposed, ROFLUMILAST 1 mg/kg
  Lung desmosine content compared to air-exposed, in words: significantly lower lung desmosine content
[1]; smoke-exposed, ROFLUMILAST 5 mg/kg
  Lung desmosine content compared to air-exposure, in words: Unchanged lung desmosine content
C57BI/6J mice
  Mortality: No animal died
[2]; [3]
  Lm (mean linear intercept): 33.48 ± 0.36 μm
  ISA (internal surface area of the lung): 1342.70 ± 23.39## cm^2
[2]; [4]
  Effect on increase of Lm, in words: can prevent the increase of Lm
[2]; [5]
  Lm (mean linear intercept): 40.79 ± 0.87 μm
  ISA (internal surface area of the lung): 1079.78 ± 35.61** cm^2
[2]; [6]
  Lm (mean linear intercept): 34.28 ± 0.31 μm
  ISA (internal surface area of the lung): 1292.21 ± 29.63# cm^2
[2]; ROFLUMILAST 1 mg/kg
  Inhibition of emphysema formation (Lm and ISA), in words: unable to inhibit emphysema formation
[2]; ROFLUMILAST 5 mg/kg
  Inhibition of emphysema formation (Lm and ISA), in words: gross inhibition of emphysema formation
